In patent US5789434A, “Derivatives of substituted 4-biarylbutyric acid as matrix metalloprotease inhibitors” (priority 1995, dated 1998):

Assays:
[1] = biological target: T1, MMP-9 (Homo sapiens, UniProt P14780); test: Thiopeptilide MMP-9 Inhibition Assay; assay type: biochemical; settings: for inhibition at 5 µM: read-out: MMP-9: Thiopep. % inhibition; for IC50: pH 6.5, x (n) = average of n determinations, read-out: MMP-9: Thiopep. IC50
T1 construct: from tissue; host or cells: human polymorphonuclear leukocytes (PMN) from whole blood (New York Blood Center), PMA-stimulated supernatant
T1 sequence (P14780 107-707 limits assumed): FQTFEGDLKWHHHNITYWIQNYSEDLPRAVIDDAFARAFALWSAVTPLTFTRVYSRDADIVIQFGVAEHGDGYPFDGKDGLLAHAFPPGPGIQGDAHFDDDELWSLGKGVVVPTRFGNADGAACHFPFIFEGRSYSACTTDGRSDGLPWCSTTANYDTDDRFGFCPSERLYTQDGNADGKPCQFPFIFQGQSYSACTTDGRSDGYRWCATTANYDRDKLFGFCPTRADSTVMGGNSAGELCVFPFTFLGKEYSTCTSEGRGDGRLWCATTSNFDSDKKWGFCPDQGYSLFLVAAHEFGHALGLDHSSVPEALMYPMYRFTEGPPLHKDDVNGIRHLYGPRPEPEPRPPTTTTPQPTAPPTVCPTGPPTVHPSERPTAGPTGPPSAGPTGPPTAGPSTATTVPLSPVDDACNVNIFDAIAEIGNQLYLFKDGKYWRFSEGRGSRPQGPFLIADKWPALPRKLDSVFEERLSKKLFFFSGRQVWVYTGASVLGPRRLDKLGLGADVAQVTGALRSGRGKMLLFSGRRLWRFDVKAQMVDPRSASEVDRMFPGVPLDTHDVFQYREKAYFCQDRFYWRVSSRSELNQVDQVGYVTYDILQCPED

[2] = biological target: T2, MMP-3 (Homo sapiens, UniProt P08254); test: Primary Thiopeptilide MMP-3 Inhibition Assay; assay type: biochemical; settings: for inhibition at 5 µM: read-out: MMP-3 Thiopep. % inhibition; for IC50: pH 6.5, 13 nM stromelysin, x (n) = average of n determinations, read-out: MMP-3 Thiopep. IC50
T2 construct: Truncated Prostromelysin-257 was expressed in a soluble form in E.coli; made in house; host or cells: E. coli
T2 sequence (P08254 100-274 limits assumed): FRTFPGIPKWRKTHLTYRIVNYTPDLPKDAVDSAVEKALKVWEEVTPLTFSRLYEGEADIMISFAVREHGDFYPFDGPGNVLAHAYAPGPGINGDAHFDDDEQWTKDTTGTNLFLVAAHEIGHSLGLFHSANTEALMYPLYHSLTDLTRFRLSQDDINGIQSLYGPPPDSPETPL

| inhibition at 5 µM [1] | inhibition at 5 µM [2] | IC50 [2] | IC50 [1] | Structure (SMILES) |
| --- | --- | --- | --- | --- |
| 1% | 10% |  |  | C[C@H](C(=O)c1ccc(-c2ccc(Cl)cc2)cc1)[C@@H](C)C(=O)O (relative stereo) [Example 284, [1,1'-Biphenyl]-4-butanoic acid, 4'-chloro-α,β-dimethyl-γ-oxo-, (R*,S*)-] |
| 21% |  | 2500 nM |  | O=C(O)[C@@H]1CCCC[C@H]1C(=O)c1ccc(-c2ccc(Cl)cc2)cc1 (relative stereo) [Example 285, Cyclohexanecarboxylic acid, 2-[(4'-chloro[1,1'-biphenyl]-4-yl)carbonyl]-, trans-] |
| 0% | 19% |  |  | O=C(c1ccc(-c2ccc(Cl)cc2)cc1)[C@H]1CCCC[C@H]1C(=O)O (relative stereo) [Example 286, Cyclohexanecarboxylic acid, 2-[(4'-chloro[1,1'-biphenyl]-4-yl)carbonyl]-, trans-] |
| 46% | 40% |  |  | O=C(c1ccc(-c2ccc(Cl)cc2)cc1)[C@H]1CCC[C@H]1C(=O)O (relative stereo) [Example 288, Cyclopentanecarboxylic acid, 2-[(4'-chloro[1,1'-biphenyl]-4-yl)carbonyl]-, cis-] |
|  |  | 348 nM | 910 nM | O=C(O)[C@@H]1CCC[C@H]1C(=O)c1ccc(-c2ccc(Cl)cc2)cc1 (relative stereo) [Example 289, Cyclopentanecarboxylic acid, 2-[(4'-chloro[1,1'-biphenyl]-4-yl)carbonyl]-, trans-] |
| 15% | 35% |  |  | O=C(c1ccc(-c2ccc(Cl)cc2)cc1)[C@H]1CC[C@H]1C(=O)O (relative stereo) [Example 290, Cyclobutanecarboxylic acid, 2-[(4'-chloro[1,1'-biphenyl]-4-yl)carbonyl]-, cis-] |
| 12% | 21% |  |  | O=C(c1ccc(-c2ccc(Cl)cc2)cc1)[C@H]1C[C@H]1C(=O)O (relative stereo) [Example 292, Cyclopropanecarboxylic acid, 2-[(4'-chloro[1,1'-biphenyl]-4-yl)carbonyl]-, cis-, reference compound] |
| 0% | 16% |  |  | O=C(O)[C@@H]1C[C@H]1C(=O)c1ccc(-c2ccc(Cl)cc2)cc1 (relative stereo) [Example 293, Cyclopropanecarboxylic acid, 2-[(4'-chloro[1,1'-biphenyl]-4-yl)carbonyl]-, trans-, reference compound] |
|  |  | 310 nM | 1400 nM | O=C(O)[C@H]1[C@@H](Sc2ccc(F)cc2)CC[C@@H]1C(=O)c1ccc(-c2ccc(Cl)cc2)cc1 (relative stereo) [Example 303, Cyclopentanecarboxylic acid, 2-[(4'-chloro[1,1'-biphenyl]-4-yl)carbonyl]-5-[(4-fluorophenyl)thio]-, (1α,2β,5α)-] |
|  |  | 55 nM | 42 nM | Cc1ccccc1S[C@@H]1CC[C@H](C(=O)c2ccc(-c3ccc(Cl)cc3)cc2)[C@H]1C(=O)O (relative stereo) [Example 304, Cyclopentanecarboxylic acid, 2-[(4'-chloro[1,1'-biphenyl]-4-yl)carbonyl]-5-[(2-methylphenyl)thio]-, (1α,2β,5α)-] |
|  |  | 470 nM | 1800 nM | Cc1ccccc1S[C@H]1CC[C@@H](C(=O)c2ccc(-c3ccc(Cl)cc3)cc2)[C@H]1C(=O)O (relative stereo) [Example 305, Cyclopentanecarboxylic acid, 2-[(4'-chloro[1,1'-biphenyl]-4-yl)carbonyl]-5-[(2-methylphenyl)thio]-, (1α,2α,5α)-] |
|  |  | 150 nM | 550 nM | Cc1ccccc1S[C@H]1CC[C@H](C(=O)c2ccc(-c3ccc(Cl)cc3)cc2)[C@H]1C(=O)O (relative stereo) [Example 306, Cyclopentanecarboxylic acid, 2-[(4'-chloro[1,1'-biphenyl]-4-yl)carbonyl]-5-[(2-methylphenyl)thio]-, (1α,2β,5α)-] |
|  |  | 73 nM | 62 nM | O=C(O)[C@@H]1[C@@H](C(=O)c2ccc(-c3ccc(Cl)cc3)cc2)CC[C@H]1Sc1ccc(F)cc1 (relative stereo) [Example 309, Cyclopentanecarboxylic acid, 2-[(4'-chloro[1,1'-biphenyl]-4-yl)carbonyl]-5-[(4-fluorophenyl)thio]-, (1α,2β-5β)-] |
|  | 55% |  | 12000 nM | CC1=C(C)C[C@@H](C(=O)c2ccc(-c3ccc(Cl)cc3)cc2)[C@H](C(=O)O)C1 (relative stereo) [Example 327, 3-Cyclohexene-1-carboxylic acid, 6-[(4'-chloro[1,1'-biphenyl]-4-yl)carbonyl]-3,4-dimethyl-, trans-] |
| 45% | 49% |  |  | O=C(O)[C@@H]1CC=CC[C@H]1C(=O)c1ccc(-c2ccc(Cl)cc2)cc1 (relative stereo) [Example 328, 3-Cyclohexene-1-carboxylic acid, 6-[(4'-chloro[1,1'-biphenyl]-4-yl)carbonyl]-, trans-] |
|  | 58% |  | 8000 nM | CC1=CC[C@@H](C(=O)c2ccc(-c3ccc(Cl)cc3)cc2)[C@H](C(=O)O)C1 (relative stereo) [Example 329, 3-Cyclohexene-1-carboxylic acid, 6-[(4'-chloro[1,1'-biphenyl]-4-yl)carbonyl]-3-methyl-, trans-] |
| 18% | 15% |  |  | O=C(O)[C@H]1C2CCC(CC2)[C@@H]1C(=O)c1ccc(-c2ccc(Cl)cc2)cc1 (relative stereo) [Example 331, Bicyclo[2.2.2]octane-2-carboxylic acid, 3-[(4'-chloro[1,1'-biphenyl]-4-yl)carbonyl]-, trans-] |
| 19% | 11% |  |  | CC(C)CC(CC(=O)O)C(=O)c1ccc(-c2ccc(Cl)cc2)cc1 (single isomer, unassigned) [Example 5, 5-methyl-3-[oxo-(4'-chloro-4-biphenyl)methyl]hexanoic acid] |
|  |  | 270 nM | 2200 nM | CC(C)C[C@@H](CC(=O)c1ccc(-c2ccc(Cl)cc2)cc1)C(=O)O [Example 2, [1,1'-Biphenyl]-4-butanoic acid, 4'-chloro-α-(2-methylpropyl)-γ-oxo-, (S)-] |
| 0% | 13% |  |  | CC(C)C[C@H](CC(=O)c1ccc(-c2ccc(Cl)cc2)cc1)C(=O)O [Example 3, [1,1'-Biphenyl]-4-butanoic acid, 4'-chloro-α-(2-methylpropyl)-γ-oxo-, (R)-] |
| 38% |  | 2100 nM |  | O=C(O)CCC(=O)c1ccc(-c2ccc(Cl)cc2)cc1 [Example 6, [1,1'-Biphenyl]-4-butanoic acid, 4'-chloro-γ-oxo-, reference compound] |
|  |  | 690 nM | 2100 nM | O=C(O)CCC(=O)c1ccc(-c2ccc(Br)cc2)cc1 [Example 7, [1,1'-Biphenyl]-4-butanoic acid, 4'-bromo-γ-oxo-, reference compound] |
| 0% | 26% |  |  | O=C(O)CCC(=O)c1ccc(-c2ccc(F)cc2)cc1 [Example 8, [1,1'-Biphenyl]-4-butanoic acid, 4'-fluoro-γ-oxo-, reference compound] |
| 3% | 0% |  |  | O=C(O)CCC(=O)c1ccc(-c2ccccc2F)cc1 [Example 9, [1,1'-Biphenyl]-4-butanoic acid, 2'-fluoro-γ-oxo-, reference compound] |
| 0% | 1% |  |  | O=C(O)CCC(=O)c1ccc(-c2ccccc2Cl)cc1 [Example 10, [1,1'-Biphenyl]-4-butanoic acid, 2'-chloro-γ-oxo-, reference compound] |
| 0% | 14% |  |  | O=C(O)CCC(=O)c1ccc(-c2ccc(F)cc2F)cc1 [Example 11, [1,1'-Biphenyl]-4-butanoic acid, 2',4'-difluoro-γ-oxo-, reference compound] |
| 0% | 17% |  |  | O=C(O)CCC(=O)c1ccc(-c2cccc(Cl)c2)cc1 [Example 12, [1,1'-Biphenyl]-4-butanoic acid, 3'-chloro-γ-oxo-, reference compound] |
| 0% |  | 2000 nM |  | CC(C)CC(CC(=O)c1ccc(-c2ccc(F)cc2)cc1)C(=O)O (stereo not drawn) [Example 15, [1,1'-Biphenyl]-4-butanoic acid, 4'-fluoro-α-(2-methylpropyl)-γ-oxo-] |
|  |  | 620 nM | 3100 nM | CCc1ccc(-c2ccc(C(=O)CC(CC(C)C)C(=O)O)cc2)cc1 (stereo not drawn) [Example 16, [1,1'-Biphenyl]-4-butanoic acid, 4'-ethyl-α-(2-methylpropyl)-γ-oxo-] |
| 0% | 35% |  |  | CC(C)CC(CC(=O)c1ccc(-c2ccccc2F)cc1)C(=O)O (stereo not drawn) [Example 17, [1,1'-Biphenyl]-4-butanoic acid, 2'-fluoro-α-(2-methylpropyl)-γ-oxo-] |

| Structure (SMILES) | inhibition at 5 µM [1] | inhibition at 5 µM [2] | IC50 [2] | IC50 [1] |
| --- | --- | --- | --- | --- |
| O=C(O)[C@H]1[C@@H](Sc2ccccc2)CC[C@@H]1C(=O)c1ccc(-c2ccc(Cl)cc2)cc1 (relative stereo) [Example 295] |  |  | 99 nM | 600 nM |
| COC(=O)c1ccccc1S[C@H]1CC[C@H](C(=O)c2ccc(-c3ccc(Cl)cc3)cc2)[C@H]1C(=O)O (relative stereo) [Example 298, trans-5-[4-(4-chlorophenyl)phenylcarbonyl]-cis-2-(2-methoxycarbonylphenylthio)cyclopentanecarboxylic acid] |  |  | 50 nM | 850 nM |
| CC(C)(C)C(=O)SCC(CC(=O)c1ccc(-c2ccc(Cl)cc2)cc1)C(=O)O (single isomer, unassigned) [Example 195, [1,1'-Biphenyl]-4-butanoic acid, 4'-chloro-α-[[(2,2-dimethyl-1-oxopropyl)thio]methyl]-γ-oxo-] | 20% | 31% |  |  |
